The source of these data is PubChem BioAssay (NCI).

Molecules are shown by their SMILES. “And” between values parts separate entries of the source, which are not always exact repeats. Identical values can stand only once.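 Briefly, cells in 96-well plates were exposed to five compound concentrations for 48 h, and endpoints were estimated by linear interpolation. Here, GI50 denotes the concentration required for 50% inhibition of growth. TGI: concentration producing complete growth inhibition.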 Some results are limits rather than exact numbers.

Some test systems named below: 786-0 renal; CCRF-CEM leukemia; HCT-15 colon; HOP-62 NSCLC; HOP-92 NSCLC; MOLT-4 leukemia; OVCAR-5 ovarian; RPMI-8226 leukemia; SR leukemia; UACC-257 melanoma; UACC-62 melanoma; CAKI-1 renal.
Assay in all cases: growth of human tumour cells (NCI), 48 h

On to `CCCCCC(=O)N[C@@H](c1ccccc1)C(O)C(=O)OC1C[C@@]2(O)C(OC(=O)c3ccccc3)C3[C@](C)(C(=O)[C@H](O)C(=C1C)C2(C)C)C(OC1OCC(O)C(O)C1O)C[C@H]1OC[C@@]31OC(C)=O` (some centres not stated), for which the TGI was over 100 µM in the assay on 786-0 renal; over 100 µM with CCRF-CEM leukemia; over 100 µM with HCT-15 colon; over 75.8 µM in the assay on HOP-62 NSCLC; over 100 µM in the assay with HOP-92 NSCLC; over 100 µM in the assay with MOLT-4 leukemia. Also, the TGI in the assay with OVCAR-5 ovarian was over 100 µM; in the assay with RPMI-8226 leukemia, over 100 µM; in the assay on SR leukemia, 40.2 µM; in the assay with UACC-257 melanoma, over 100 µM; in the assay on UACC-62 melanoma it was over 100 µM.
In the case of `COc1ccc(N2C(=Nc3ccccc3)SC(=N/S(=O)(=O)c3ccccc3)/C2=N\S(=O)(=O)c2ccccc2)cc1`, the TGI turned out to be 64.8 µM in the assay on 786-0 renal; 46 µM in the assay with CCRF-CEM leukemia; 31.8 µM in the assay with HCT-15 colon; 98.5 µM in the assay with HOP-62 NSCLC; 42 µM with HOP-92 NSCLC; 45.6 µM with MOLT-4 leukemia. Further, the TGI with OVCAR-5 ovarian stood at 50.7 µM; with RPMI-8226 leukemia, 50.8 µM; with SR leukemia it was 40.4 µM; in the assay on UACC-257 melanoma it was 73.1 µM; with UACC-62 melanoma, 19.8 µM.
`CCOc1ccc(/C=C(\Cl)c2ccc(OC)c(OC)c2)cc1`: the TGI in the assay on 786-0 renal, in the assay on CCRF-CEM leukemia, in the assay on HCT-15 colon, with HOP-62 NSCLC, in the assay with HOP-92 NSCLC and with MOLT-4 leukemia was over 100 µM throughout. For the same compound, the TGI with RPMI-8226 leukemia is over 100 µM; with SR leukemia it was 91.4 µM; with UACC-257 melanoma, 97.9 µM; in the assay with UACC-62 melanoma, over 100 µM.
For the compound `COc1cc2c(c(OC)c1OC)-c1ccc(SC)c(=O)cc1[C@@H](OC(C)=O)CC2`, the TGI is over 100 µM in the assay with 786-0 renal; over 100 µM in the assay on CAKI-1 renal; 0.0312 µM in the assay on CCRF-CEM leukemia; over 100 µM in the assay with HCT-15 colon; over 100 µM in the assay on HOP-62 NSCLC; over 100 µM in the assay with HOP-92 NSCLC. The TGI in the assay with MOLT-4 leukemia is over 100 µM; in the assay on RPMI-8226 leukemia it was over 59.9 µM; in the assay with SR leukemia it was over 100 µM; in the assay on UACC-257 melanoma it was over 100 µM; in the assay on UACC-62 melanoma, over 100 µM.
Turning to `O=C(/C=C/c1ccsc1)c1ccco1`, the TGI in the assay with 786-0 renal came to 24.4 µM; with CCRF-CEM leukemia, 22.9 µM; in the assay with HCT-15 colon, 20.1 µM; in the assay on HOP-62 NSCLC, 28.1 µM; in the assay with HOP-92 NSCLC, 30.6 µM; in the assay with MOLT-4 leukemia, 36 µM. Moreover, the TGI is 34.9 µM in the assay on OVCAR-5 ovarian; 16.1 µM in the assay with RPMI-8226 leukemia; 9.14 µM in the assay with SR leukemia; 38.6 µM with UACC-257 melanoma; 29.2 µM in the assay with UACC-62 melanoma.
Regarding `CC(C)SC(C)(NC(=O)C1C(C)(C)CCC1(C)C)C(=O)O` (configuration not stated), the TGI with 786-0 renal, with CCRF-CEM leukemia, with HCT-15 colon, in the assay on HOP-62 NSCLC, in the assay on HOP-92 NSCLC and in the assay on MOLT-4 leukemia was over 100 µM throughout. For the same compound, the TGI with OVCAR-5 ovarian, in the assay with RPMI-8226 leukemia and in the assay with SR leukemia was over 100 µM throughout.
For `O=C(Nc1nc2c(=O)[nH]cnc2s1)c1ccccc1`, the TGI in the assay on 786-0 renal, in the assay with CAKI-1 renal, in the assay on CCRF-CEM leukemia, with HCT-15 colon, in the assay on HOP-62 NSCLC and in the assay with HOP-92 NSCLC was over 100 µM throughout. Further, the TGI with OVCAR-5 ovarian was over 100 µM; with SR leukemia it was 61.9 µM; in the assay with UACC-257 melanoma, over 100 µM; in the assay on UACC-62 melanoma it was over 100 µM.
Take `O=C(N=C1SCCN1C(=O)C(C(F)(F)F)C(F)(F)F)C(C(F)(F)F)C(F)(F)F`: the TGI in the assay on 786-0 renal, in the assay with CAKI-1 renal, in the assay with CCRF-CEM leukemia, with HCT-15 colon, with HOP-62 NSCLC and in the assay on HOP-92 NSCLC was over 100 µM in each case. Besides, the TGI with MOLT-4 leukemia, with OVCAR-5 ovarian, in the assay with RPMI-8226 leukemia, in the assay on SR leukemia and in the assay on UACC-257 melanoma was over 100 µM throughout.
Regarding `CC1(C)N=C(C(N)=O)c2ncn(CCO)c2N1`, the TGI with 786-0 renal, in the assay on CAKI-1 renal, in the assay on CCRF-CEM leukemia, in the assay with HCT-15 colon, in the assay on HOP-62 NSCLC and with HOP-92 NSCLC was over 100 µM throughout. The TGI in the assay on OVCAR-5 ovarian, in the assay on RPMI-8226 leukemia, in the assay with SR leukemia, in the assay on UACC-257 melanoma and in the assay with UACC-62 melanoma was over 100 µM each time.
As for `N=c1nnc(=O)c2c(s1)-n1ncc(C(=O)O)c1NN2`, the TGI in the assay with 786-0 renal, with CAKI-1 renal, with HOP-62 NSCLC, with HOP-92 NSCLC, in the assay with MOLT-4 leukemia and in the assay with OVCAR-5 ovarian was over 100 µM throughout. For the same compound, the TGI in the assay on RPMI-8226 leukemia, in the assay on SR leukemia and with UACC-62 melanoma was over 100 µM throughout.
Take `CC(C)C(C/C=C1\CC(CO)(COC(=O)c2ccccc2)OC1=O)C(C)C` (configuration not stated): the TGI amounted to 28.3 µM in the assay on 786-0 renal; 33.8 µM with CAKI-1 renal; 44.1 µM in the assay with CCRF-CEM leukemia; 41 µM in the assay with HCT-15 colon; 28.7 µM in the assay with HOP-62 NSCLC; 29.3 µM in the assay with HOP-92 NSCLC. The TGI is 42.6 µM in the assay on MOLT-4 leukemia; 28 µM in the assay with OVCAR-5 ovarian; over 100 µM in the assay on SR leukemia; 70.6 µM with UACC-257 melanoma; over 100 µM with UACC-62 melanoma.
Consider `Cc1ccnc2[nH]c(-c3cccc(Cl)c3)cc(=O)c12`, for which the TGI in the assay on 786-0 renal was over 100 µM; with CAKI-1 renal it was over 47.8 µM; in the assay on CCRF-CEM leukemia it was over 100 µM; in the assay on HCT-15 colon, over 100 µM; in the assay with HOP-62 NSCLC it was over 74.8 µM; with HOP-92 NSCLC it was over 100 µM. The TGI with MOLT-4 leukemia is over 50 µM; in the assay on OVCAR-5 ovarian, over 100 µM; with SR leukemia it was over 100 µM; in the assay on UACC-257 melanoma, over 100 µM; in the assay with UACC-62 melanoma it was over 100 µM.
In the case of `NC(=Nc1ccc(O)cc1)S(=O)(=O)O`, the TGI with 786-0 renal, with CAKI-1 renal, with CCRF-CEM leukemia, with HCT-15 colon, in the assay on HOP-62 NSCLC and with HOP-92 NSCLC was over 100 µM throughout. Besides, the TGI in the assay with MOLT-4 leukemia, in the assay with OVCAR-5 ovarian, in the assay on SR leukemia, in the assay with UACC-257 melanoma and with UACC-62 melanoma was over 100 µM each time.
Regarding `CC(C)=CC(=O)O[C@H]1C(=O)O[C@@H]2C[C@H]3[C@H](C)C(=O)C(O[C@@H]4O[C@H](CO)[C@@H](O)[C@H](O)[C@H]4O)=C[C@]3(C)[C@H]3[C@@H](O)[C@H](O)[C@]4(C(=O)O)OC[C@]32[C@@H]14`, the TGI in the assay on 786-0 renal, with CAKI-1 renal, in the assay with CCRF-CEM leukemia, in the assay with HCT-15 colon, in the assay with HOP-62 NSCLC and with HOP-92 NSCLC was over 100 µM each time. Further, the TGI in the assay with MOLT-4 leukemia, in the assay with OVCAR-5 ovarian, with SR leukemia, in the assay on UACC-257 melanoma and in the assay on UACC-62 melanoma was over 100 µM in each case. The GI50 in the assay on CCRF-CEM leukemia was 36.3 µM; in the assay with HCT-15 colon, over 100 µM; with HOP-62 NSCLC it was 33.2 µM; in the assay on HOP-92 NSCLC, 31.4 µM; in the assay on MOLT-4 leukemia it was 22.4 µM; in the assay on SR leukemia, 31.2 µM.
With `c1ccc(-c2sc(-c3cccs3)cc2Cc2cccs2)cc1`, the TGI in the assay with 786-0 renal, in the assay on CAKI-1 renal, with CCRF-CEM leukemia, in the assay on HCT-15 colon, in the assay on HOP-62 NSCLC and in the assay with HOP-92 NSCLC was over 10 µM in each case. Further, the TGI in the assay with MOLT-4 leukemia, with RPMI-8226 leukemia, in the assay on SR leukemia, in the assay on UACC-257 melanoma and with UACC-62 melanoma was over 10 µM in each case.
Take `CCOC(=O)Oc1cc2c(c(OC)c1OC)-c1ccc(SC)c(=O)cc1C(NC(=O)C(F)(F)F)CC2` (configuration not stated): the TGI was 13 µM in the assay with 786-0 renal; 0.0928 µM in the assay on CAKI-1 renal; 4.92 µM with CCRF-CEM leukemia; over 100 µM in the assay with HCT-15 colon; over 100 µM in the assay on HOP-62 NSCLC; 0.306 µM in the assay on HOP-92 NSCLC. Further, the TGI with OVCAR-5 ovarian is over 100 µM; with RPMI-8226 leukemia it was 14.1 µM; in the assay on SR leukemia, 5.4 µM and 15.6 µM; in the assay with UACC-257 melanoma, 37.9 µM; in the assay on UACC-62 melanoma it was over 100 µM. Moreover, the GI50 in the assay on OVCAR-5 ovarian was 18.2 µM.
Consider `O=C1O/C(=C(\Br)c2cccc3ccccc23)c2ccccc21`, for which the TGI is 31.4 µM in the assay on 786-0 renal; 46.1 µM in the assay with CCRF-CEM leukemia; over 65.6 µM in the assay with HCT-15 colon; over 100 µM in the assay on HOP-62 NSCLC; over 56.9 µM in the assay with HOP-92 NSCLC; 46.7 µM in the assay on MOLT-4 leukemia. In addition, the TGI in the assay on OVCAR-5 ovarian is over 54.9 µM; in the assay with RPMI-8226 leukemia, 71.4 µM; in the assay with SR leukemia it was 51.5 µM; with UACC-257 melanoma, over 56.1 µM; in the assay on UACC-62 melanoma it was over 55.6 µM.
Turning to `Cc1nc2c(n1C(C)(C)C)C(=O)c1ccccc1C2=O`, the TGI in the assay with 786-0 renal is over 100 µM; with CCRF-CEM leukemia, over 100 µM; with HCT-15 colon, over 100 µM; in the assay on HOP-62 NSCLC, over 100 µM; in the assay on HOP-92 NSCLC it was 66.4 µM; in the assay on MOLT-4 leukemia, over 100 µM. Moreover, the TGI in the assay with SR leukemia, in the assay with UACC-257 melanoma and in the assay with UACC-62 melanoma was over 100 µM in each case.
